The text below walks through data of patent publication US9284325B2, “Spectinamides as anti-tuberculosis agents” (UNIVERSITY OF TENNESSEE RESEARCH FOUNDATION, priority 2009, dated 2016).

Molecules are shown by their SMILES. Where a name gives a salt, the structure may show the parent alone.

The subject of one experiment is M. tuberculosis H37Rv. Nature of the experiment: MIC determination by microbroth dilution, anti-tuberculosis activity. The conditions noted are these: Mycobacterium tuberculosis, H37RV, 168 h; read-out: MIC. It counts as cell-based, Mycobacterium tuberculosis.
Experiment [1] relates to S. aureus 8325 or strain ATCC 29213. The experiment in a line: MIC determination by microbroth dilution. The conditions noted are these: Staphylococcus aureus, ATCC29213; S. aureus 8325 or strain ATCC 29213 (for 1471-1544). It is filed as cell-based, Staphylococcus aureus. (In general: In broth dilution the organism is exposed to a series of concentrations in liquid medium.)

Experiment [2] concerns Strep. pyogenes ATCC 700294. Nature of the experiment: MIC determination by microbroth dilution. It counts as cell-based, Streptococcus pyogenes. The following applies: Streptococcus pyogenes, ATCC700294, read-out: MIC S. pyogenes.
Experiment [3] concerns Strep. pneumoniae DAW27 or strain R6. Nature of the experiment: MIC determination by microbroth dilution. It is filed as cell-based, Streptococcus pneumoniae. The conditions noted are these: Streptococcus pneumoniae; Strep. pneumoniae DAW27 or strain R6 (for 1443-1544); read-out: MIC S. pneumoniae.
The next experiment concerns E. faecalis ATCC 33186. The experiment in a line: MIC determination by microbroth dilution. It is filed as cell-based, Enterococcus faecalis. The conditions noted are these: Enterococcus faecalis, ATCC33186.
The subject of the next experiment is B. anthracis Sterne 34F2. Nature of the experiment: microbe, parasite or virus in culture. It counts as cell-based, Bacillus anthracis. The following applies: Bacillus anthracis, STERNE34F2, read-out: MIC B. anthracis 34F2.
The test system of experiment [4] is Burkholderia cepacia ATCC 25416. The experiment in a line: MIC determination by microbroth dilution. It counts as cell-based. The following applies: ATCC25416, read-out: MIC B. cepcia.
In experiment [5] the test system is Proteus mirabilis ATCC 25933. Nature of the experiment: MIC determination by microbroth dilution. It is filed as cell-based. The conditions noted are these: ATCC25933.
The subject of experiment [6] is Proteus vulgaris ATCC 33420. Nature of the experiment: MIC determination by microbroth dilution. It is filed as cell-based. The following applies: ATCC33420.
In experiment [7] the test system is Klebsiella pneumoniae ATCC 33495. The experiment in a line: MIC determination by microbroth dilution. The following applies: ATCC33495. It is filed as cell-based.
The test system of experiment [8] is Acinetobacter baumannii ATCC 19606. The experiment in a line: MIC determination by microbroth dilution. The following applies: ATCC19606. It is filed as cell-based.
A further experiment relates to P. aeruginosa PAO1. Nature of the experiment: MIC determination by microbroth dilution. The conditions noted are these: Pseudomonas aeruginosa. It is filed as cell-based, Pseudomonas aeruginosa.
Experiment [9] deals with Strenotrophomonas maltophilia ATCC 13637. Nature of the experiment: MIC determination by microbroth dilution. It is filed as cell-based.
The subject of another experiment is E. coli K12. Nature of the experiment: MIC determination by microbroth dilution. It is filed as cell-based, Escherichia coli. The conditions noted are these: Escherichia coli, K12.
The subject of a further experiment is E. coli K12 ΔtolC. Nature of the experiment: microbe, parasite or virus in culture. It counts as cell-based. The conditions noted are these: Escherichia coli, read-out: MIC E. coli K12 ΔtolC.

As for `CN[C@@H]1[C@H](O)[C@H](NC)C2O[C@]3(O)C(OC2[C@H]1O)O[C@H](C)C[C@H]3NC(=O)Cc1ccc([N+](=O)[O-])cn1` (stereo partly drawn) [Compound 1490, 3′-Dihydro-3′-deoxy-4(R)-(5-nitropyridin-2-yl)acetylamino spectinomycin trihydrobromide], the MIC was 6.25 µg/mL with M. tuberculosis H37Rv; 100 µg/mL in experiment [1]; 12.5 µg/mL in [2]; 12.5 µg/mL in experiment [3]; 50 µg/mL with E. faecalis ATCC 33186; over 200 µg/mL with B. anthracis Sterne 34F2. Also, the MIC (in experiment [4]; in [5]; in [6]; in experiment [7]; in [8]; in the experiment with P. aeruginosa PAO1) was over 200 µg/mL each time. Besides, the MIC in [9] was over 200 µg/mL; in the experiment on E. coli K12, 200 µg/mL; in the experiment on E. coli K12 ΔtolC it was 12.5 µg/mL.

In the case of `CN[C@@H]1[C@H](O)[C@H](NC)C2O[C@]3(O)C(OC2[C@H]1O)O[C@H](C)C[C@H]3NC(=O)Cc1csc(Nc2ccc(OC(F)(F)F)cc2)n1` (stereo partly drawn) [Compound 1540, 3′-Dihydro-3′-deoxy-4(R)-(2-((4-(trifluoromethoxy)phenyl)amino)-thiazol-4-yl)acetylamino spectinomycin tribromide], the MIC in the experiment with M. tuberculosis H37Rv was 6.25 µg/mL; in [1] it was 100 µg/mL; in [2], 6.25 µg/mL; in [3], 6.25 µg/mL; against E. faecalis ATCC 33186, 25 µg/mL; in the experiment on B. anthracis Sterne 34F2 it was over 200 µg/mL. For the same compound, the MIC was over 200 µg/mL in experiment [4]; over 200 µg/mL in experiment [5]; over 200 µg/mL in [6]; over 200 µg/mL in [7]; over 200 µg/mL in experiment [8]; 25 µg/mL against P. aeruginosa PAO1. Besides, the MIC in experiment [9] was 200 µg/mL; against E. coli K12 it was over 200 µg/mL; with E. coli K12 ΔtolC it was 12.5 µg/mL.

Consider `CN[C@@H]1[C@H](O)[C@H](NC)C2O[C@]3(O)C(OC2[C@H]1O)O[C@H](C)C[C@H]3NC(=O)Cc1cc(Cl)ccn1` (stereo partly drawn) [Compound 1544, 3′-Dihydro-3′-deoxy-4(R)-(4-chloropyridin-2-yl)acetylamino spec-tinomycin tribromide], for which the MIC with M. tuberculosis H37Rv is 0.8 µg/mL; in experiment [1], 50 µg/mL; in experiment [2] it was 12.5 µg/mL; in [3] it was 6.25 µg/mL; with E. faecalis ATCC 33186 it was 100 µg/mL; in the experiment with B. anthracis Sterne 34F2, over 200 µg/mL. For the same compound, the MIC (in experiment [4]; in experiment [5]; in experiment [6]; in experiment [7]; in experiment [8]; against P. aeruginosa PAO1) was over 200 µg/mL throughout. Also, the MIC in experiment [9] was over 200 µg/mL; in the experiment on E. coli K12 it was over 200 µg/mL; in the experiment with E. coli K12 ΔtolC, 12.5 µg/mL.

As for `CN[C@@H]1[C@H](O)[C@H](NC)C2O[C@]3(O)C(OC2[C@H]1O)O[C@H](C)C[C@H]3NC(=O)CCc1ccccn1` (stereo partly drawn) [Compound 1518, 3′-Dihydro-3′-deoxy-4(R)-(pyridin-2-yl)propanoylamino spectinomycin trihydrobromide], the MIC is 50 µg/mL in the experiment on M. tuberculosis H37Rv; 200 µg/mL in experiment [1]; 6.25 µg/mL in experiment [2]; 12.5 µg/mL in [3]; over 200 µg/mL in the experiment with E. faecalis ATCC 33186; over 200 µg/mL with B. anthracis Sterne 34F2. Besides, the MIC (in experiment [4]; in [5]; in experiment [6]; in [7]; in experiment [8]; against P. aeruginosa PAO1) was over 200 µg/mL each time. The values for the MIC (in [9]; against E. coli K12; with E. coli K12 ΔtolC) were over 200 µg/mL, over 200 µg/mL and 50 µg/mL, respectively.

Regarding `CN[C@@H]1[C@H](O)[C@H](NC)C2O[C@]3(O)C(OC2[C@H]1O)O[C@H](C)C[C@H]3NC(=O)CCNC(=O)c1ccccc1` (stereo partly drawn) [Compound 1503, 3′-Dihydro-3′-deoxy-4(R)-3-benzamido propanoylamino spectino-mycin Dihydrochloride], the MIC (in the experiment with M. tuberculosis H37Rv; in [1]; in experiment [2]; in experiment [3]; against E. faecalis ATCC 33186; in the experiment on B. anthracis Sterne 34F2) was over 200 µg/mL in each case. The MIC (in [4]; in [5]; in experiment [6]; in experiment [7]; in [8]; against P. aeruginosa PAO1) was over 200 µg/mL in each case. In addition, the MIC (in experiment [9]; against E. coli K12; in the experiment with E. coli K12 ΔtolC) was over 200 µg/mL in each case.

`CN[C@@H]1[C@H](O)[C@H](NC)C2O[C@]3(O)C(OC2[C@H]1O)O[C@H](C)C[C@H]3NC(=O)C(c1ccccc1)c1ccccc1` (stereo partly drawn) [Compound 1514, 3′-Dihydro-3′-deoxy-4(R)-(2,2-diphenyl)acetylamino spectinomycin dihydrochloride]: the MIC (in the experiment with M. tuberculosis H37Rv; in experiment [1]; in experiment [2]; in [3]; against E. faecalis ATCC 33186; in the experiment with B. anthracis Sterne 34F2) was over 200 µg/mL in each case. Besides, the MIC (in experiment [4]; in experiment [5]; in [6]; in [7]; in experiment [8]; against P. aeruginosa PAO1) was over 200 µg/mL in each case. The MIC (in [9]; against E. coli K12; in the experiment on E. coli K12 ΔtolC) was over 200 µg/mL throughout.

In the case of `CN[C@@H]1[C@H](O)[C@H](NC)C2O[C@]3(O)C(OC2[C@H]1O)O[C@H](C)C[C@H]3NC(=O)Cc1ccc(-c2ccc(Cl)cc2)cn1` (stereo partly drawn) [Compound 1535, 3′-Dihydro-3′-deoxy-4(R)-(5-(4-chlorophenyl)pyridin-2-yl)acetylamino spectinomycin trihydrobromide], the MIC in the experiment with M. tuberculosis H37Rv is 3.12 µg/mL; in experiment [1], 50 µg/mL; in experiment [2], 1.6 µg/mL; in experiment [3], 0.8 µg/mL; in the experiment with E. faecalis ATCC 33186, 3.1 µg/mL; in the experiment with B. anthracis Sterne 34F2, over 200 µg/mL. Moreover, the MIC in [4] was over 200 µg/mL; in experiment [5], over 200 µg/mL; in experiment [6], over 200 µg/mL; in experiment [7] it was over 200 µg/mL; in experiment [8], over 200 µg/mL; with P. aeruginosa PAO1, 100 µg/mL. Moreover, the MIC in experiment [9] was over 200 µg/mL; in the experiment with E. coli K12, 200 µg/mL; in the experiment on E. coli K12 ΔtolC, under 6.25 µg/mL.

With `CN[C@@H]1[C@H](O)[C@H](NC)C2O[C@]3(O)C(OC2[C@H]1O)O[C@H](C)C[C@H]3NCC1CC1` (stereo partly drawn) [Compound 1419, 3′-Dihydro-3′-deoxy-4(R)-cyclopropylmethylamino spectinomycin Trihydrochloride], the MIC came to 50 µg/mL in the experiment with M. tuberculosis H37Rv; 100 µg/mL in experiment [1]; 50 µg/mL in [2]; 100 µg/mL in [3]; 200 µg/mL in the experiment on E. faecalis ATCC 33186; 50 µg/mL with B. anthracis Sterne 34F2. The MIC (in [4]; in experiment [5]; in [6]; in experiment [7]; in [8]; with P. aeruginosa PAO1) was over 200 µg/mL in each case. Also, the MIC in experiment [9] was over 200 µg/mL; against E. coli K12 it was 100 µg/mL; in the experiment on E. coli K12 ΔtolC, 25 µg/mL.

Regarding `CN[C@@H]1[C@H](O)[C@H](NC)C2O[C@]3(O)C(OC2[C@H]1O)O[C@H](C)C[C@H]3NC(=O)CN` (stereo partly drawn) [Compound 1470, 3′-Dihydro-3′-deoxy-4(R)-(2-amino)acetylamino spectinomycin Trihydrochloride], the MIC in the experiment on M. tuberculosis H37Rv is 200 µg/mL; in [1] it was over 200 µg/mL; in experiment [2], over 200 µg/mL; in experiment [3], over 200 µg/mL; against E. faecalis ATCC 33186, over 200 µg/mL; in the experiment with B. anthracis Sterne 34F2 it was over 200 µg/mL. Besides, the MIC (in experiment [4]; in [5]; in experiment [6]; in experiment [7]; in [8]; in the experiment with P. aeruginosa PAO1) was over 200 µg/mL each time. Further, the MIC (in [9]; in the experiment with E. coli K12; in the experiment on E. coli K12 ΔtolC) was over 200 µg/mL throughout.

As for `CN[C@@H]1[C@H](O)[C@H](NC)C2O[C@]3(O)C(OC2[C@H]1O)O[C@H](C)C[C@H]3NC(=O)Cc1cccnn1` (stereo partly drawn) [Compound 1449, 3′-Dihydro-3′-deoxy-4(R)-(pyridazin-3-yl)acetylamino spectinomycin tetra hydrobromide], the MIC in the experiment on M. tuberculosis H37Rv was 25 µg/mL; in experiment [1], over 200 µg/mL; in experiment [2], 200 µg/mL; in [3] it was 25 µg/mL; against E. faecalis ATCC 33186, over 200 µg/mL; in the experiment on B. anthracis Sterne 34F2, over 200 µg/mL. For the same compound, the MIC (in experiment [4]; in experiment [5]; in experiment [6]; in experiment [7]; in [8]; against P. aeruginosa PAO1) was over 200 µg/mL throughout. The values for the MIC (in [9]; in the experiment with E. coli K12; in the experiment with E. coli K12 ΔtolC) were over 200 µg/mL, over 200 µg/mL and 100 µg/mL, respectively.
